Source: PubChem BioAssay (NCI)
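1) Cells in 96-well plates. 2) Compound, 48 h, 5 concentrations. 3) Linear interpolation between surrounding doses. 4) Unreached endpoint = highest concentration. Here, GI50 denotes the concentration required for 50% inhibition of growth. The concentration for full growth arrest is given as TGI.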

What was measured:
Test in all cases: DTP human tumour cell line panel, 48 h
[1] = system: HT29 colon
[2] = system: IGROV1 ovarian
[3] = system: DMS 273 small cell lung
[4] = system: HOP-62 NSCLC
[5] = system: MALME-3M melanoma
[6] = system: OVCAR-8 ovarian
[7] = system: LOX IMVI melanoma
[8] = system: SN12C renal
[9] = system: TK-10 renal
[10] = system: NCI-H226 lung
[11] = system: SK-OV-3 ovarian
[12] = system: NCI-H522 lung
[13] = system: MOLT-4 leukemia
[14] = system: COLO 205 colon
[15] = system: UACC-257 melanoma
[16] = system: UO-31 renal
[17] = system: M14 melanoma
[18] = system: OVCAR-3 ovarian
[19] = system: SK-MEL-2 melanoma
[20] = system: HL-60(TB) leukemia
[21] = system: UACC-62 melanoma
[22] = system: K-562 leukemia
[23] = system: HCT-15 colon
[24] = system: CCRF-CEM leukemia
[25] = system: SNB-78 CNS
[26] = system: SK-MEL-28 melanoma
[27] = system: SK-MEL-5 melanoma
[28] = system: HCT-116 colon
[29] = system: SF-268 CNS
[30] = system: 786-0 renal
[31] = system: M19-MEL melanoma
[32] = system: SNB-75 CNS
[33] = system: NCI-H460 lung
[34] = system: A549 NSCLC
[35] = system: A498 renal
[36] = system: RXF 393 renal
[37] = system: SNB-19 CNS
[38] = system: SR leukemia
[39] = system: U251 CNS
[40] = system: KM12 colon
[41] = system: NCI-H23 lung
[42] = system: SF-539 CNS
[43] = system: EKVX NSCLC
[44] = system: HOP-18 NSCLC
[45] = system: KM20L2 colon
[46] = system: SW-620 colon
[47] = system: HOP-92 NSCLC
[48] = system: SF-295 CNS
[49] = system: HCC-2998 colon
[50] = system: OVCAR-4 ovarian
[51] = system: LXFL 529 NSCLC
[52] = system: ACHN renal
[53] = system: OVCAR-5 ovarian

C[CH2][Sn]([CH2]C)([O]C(=O)c1c(F)cccc1F)[O][Sn]([CH2]C)([CH2]C)[O]C(=O)c1c(F)cccc1F
GI50 [1]: 19.8 µM
TGI [1]: 42.2 µM
GI50 [2]: 69 µM
TGI [2]: > 100 µM
GI50 [3]: 18.6 µM
TGI [3]: 35.2 µM
GI50 [4]: 20.8 µM
TGI [4]: 36.9 µM
GI50 [5]: 14.9 µM
TGI [5]: 28.8 µM
GI50 [6]: 17.2 µM
TGI [6]: 30.9 µM
GI50 [7]: 16.1 µM
TGI [7]: 29.9 µM
GI50 [8]: 16 µM
TGI [8]: 29.5 µM
GI50 [9]: 19.2 µM
TGI [9]: 33.3 µM
GI50 [10]: 22 µM
TGI [10]: 36.7 µM
GI50 [11]: 41.3 µM
TGI [11]: > 100 µM
GI50 [12]: 1.1 µM
TGI [12]: 2.36 µM
GI50 [13]: 23.4 µM
TGI [13]: 88.3 µM
GI50 [14]: 12.6 µM
TGI [14]: 25.1 µM
GI50 [15]: 16.5 µM
TGI [15]: 30.2 µM
GI50 [16]: 36 µM
TGI [16]: > 100 µM
GI50 [17]: 18.1 µM
TGI [17]: 32 µM
GI50 [18]: 25.9 µM
TGI [18]: 78.1 µM
GI50 [19]: 14.4 µM
TGI [19]: 27.7 µM
GI50 [20]: 26.5 µM
TGI [20]: 76.7 µM
GI50 [21]: 17.6 µM
TGI [21]: 31.4 µM
GI50 [22]: 8.61 µM
TGI [22]: 37.5 µM
GI50 [23]: 17.9 µM
TGI [23]: 32.5 µM
GI50 [24]: 3.85 µM
TGI [24]: 17.1 µM
GI50 [25]: 15.8 µM
TGI [25]: 32.4 µM
GI50 [26]: 15.6 µM
TGI [26]: 29 µM
GI50 [27]: 18.2 µM
TGI [27]: 32.3 µM
GI50 [28]: 19 µM
TGI [28]: 34 µM
GI50 [29]: 15.3 µM
TGI [29]: 28.6 µM
GI50 [30]: 16 µM
TGI [30]: 29.7 µM
GI50 [31]: 16.3 µM
TGI [31]: 30.9 µM
GI50 [32]: 16.2 µM
TGI [32]: 29.7 µM
GI50 [33]: 20 µM
TGI [33]: 40.6 µM
GI50 [34]: > 100 µM
TGI [34]: > 100 µM
GI50 [35]: 15 µM
TGI [35]: 28.3 µM
GI50 [36]: 13.7 µM
TGI [36]: 26.6 µM
GI50 [37]: 17.1 µM
TGI [37]: 30.8 µM
GI50 [38]: 26.6 µM
TGI [38]: > 100 µM
GI50 [39]: 17.4 µM
TGI [39]: 31.2 µM
GI50 [40]: > 100 µM
TGI [40]: > 100 µM
GI50 [41]: 15.9 µM
TGI [41]: 29.3 µM
GI50 [42]: 14.9 µM
TGI [42]: 28.1 µM
GI50 [43]: 16.8 µM
TGI [43]: 30.6 µM
GI50 [44]: 22.6 µM
TGI [44]: 37.1 µM
GI50 [45]: 26.7 µM
TGI [45]: 68.8 µM
GI50 [46]: 16.3 µM
TGI [46]: 29.9 µM
GI50 [47]: 18.8 µM
TGI [47]: 32.9 µM
GI50 [48]: 20.1 µM
TGI [48]: 34.5 µM
GI50 [49]: 42.8 µM
TGI [49]: > 100 µM
GI50 [50]: 18.8 µM
TGI [50]: 33 µM
GI50 [51]: 5.44 µM
TGI [51]: 18.4 µM
GI50 [52]: 19.1 µM
TGI [52]: 33.2 µM
GI50 [53]: 17.9 µM
TGI [53]: 31.8 µM
